From ChEMBL document CHEMBL1201862, “PubChem BioAssay data set” (2004)
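Cells were grown in 96-well plates and exposed to each compound for 48 hours at five concentrations; endpoints were interpolated linearly between bracketing concentrations, or set to the highest concentration if not reached. GI50 marks 50% less growth.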 Active and inactive are the calls of the source. No stated cut-off is given here; in the data, active = GI50 up to about 1.1 µM and inactive = higher.

Assays:
Test in all cases: NCI tumour cell line growth inhibition, 48 h
786-0 = test system: 786-0
A498 = test system: A498
A549 = test system: A549
CCRF-CEM = test system: CCRF-CEM
EKVX = test system: EKVX
HCT-15 = test system: HCT-15
HL-60 = test system: HL-60
HOP-92 = test system: HOP-92
M14 = test system: M14
MDA-MB-231 = test system: MDA-MB-231
NCI-H226 = test system: NCI-H226
OVCAR-8 = test system: OVCAR-8
PC-3 = test system: PC-3
SF-268 = test system: SF-268
SF-295 = test system: SF-295
SF-539 = test system: SF-539
SK-MEL-28 = test system: SK-MEL-28
SK-OV-3 = test system: SK-OV-3
SW-620 = test system: SW-620
UACC-257 = test system: UACC-257

Row | SMILES | GI50 (786-0) | GI50 (A498) | GI50 (A549) | GI50 (CCRF-CEM) | GI50 (EKVX) | GI50 (HCT-15) [µM] | GI50 (HL-60) | GI50 (HOP-92) | GI50 (M14) | GI50 (MDA-MB-231) | GI50 (NCI-H226) | GI50 (OVCAR-8) | GI50 (PC-3) | GI50 (SF-268) | GI50 (SF-295) | GI50 (SF-539) | GI50 (SK-MEL-28) | GI50 (SK-OV-3) | GI50 (SW-620) | GI50 (UACC-257)
1 | O=c1c2ccccc2sc2ccccc12 | > 100 µM (inactive) | > 100 µM (inactive) | > 100 µM (inactive) | > 100 µM (inactive) | > 100 µM (inactive) | > 100 | > 100 µM (inactive) | > 100 µM (inactive) | > 100 µM (inactive) | > 100 µM (inactive) | > 100 µM (inactive) | > 100 µM (inactive) | > 100 µM (inactive) | > 100 µM (inactive) | > 100 µM (inactive) | > 100 µM (inactive) | > 100 µM (inactive) | > 100 µM (inactive) | > 100 µM (inactive) | > 100 µM (inactive)
2 | CC(C)c1cc(C(C)C)c(B(c2ccccc2)c2ccccc2)c(C(C)C)c1Br | > 100 µM (inactive) | > 100 µM (inactive) | > 100 µM (inactive) | > 100 µM (inactive) | > 100 µM (inactive) | > 100 | > 100 µM (inactive) | > 100 µM (inactive) | > 100 µM (inactive) | > 100 µM (inactive) | > 100 µM (inactive) | > 100 µM (inactive) | > 100 µM (inactive) | > 100 µM (inactive) | > 100 µM (inactive) | > 100 µM (inactive) | > 100 µM (inactive) | > 100 µM (inactive) | > 100 µM (inactive) | > 100 µM (inactive)
3 | CC(=O)O[C@H]1CC[C@@]2(C)C(=CC[C@H]3[C@@H]4CC[C@H](c5cc(C(F)(F)F)n(C(C)=O)n5)[C@@]4(C)CC[C@@H]32)C1 | 5.38 µM (inactive) | 10.6 µM (inactive) | 6.11 µM (inactive) | 2.98 µM (inactive) | 7.28 µM (inactive) | 5.64 | 3.5 µM (inactive) | 1.22 µM (inactive) | 8.51 µM (inactive) | 4.98 µM (inactive) | 3.24 µM (inactive) | 5.57 µM (inactive) | 4.47 µM (inactive) | 24.8 µM (inactive) | 4.85 µM (inactive) | 6.47 µM (inactive) | 13.6 µM (inactive) | 12.5 µM (inactive) | 12.9 µM (inactive) | 5.52 µM (inactive)
